In patent US20090012079A1, “Triazolopyridine Compounds” (priority 2006, published 2009):

These compounds were tested on TNFα release from human peripheral blood mononuclear cells (assay: TNFα screen: inhibition of LPS-stimulated TNFα release from human peripheral blood mononuclear cells (ELISA)). Settings: human PBMC, LPS stimulation, 18 hours incubation, TNFα in supernatant by ELISA; read-out: TNF IC50.
Type: cell-based
Experimental: Venous blood is collected from healthy volunteers and the mononuclear cells purified by centrifugation through Histopaque (Ficoll) cushions. TNFα production from these cells is stimulated by addition of lipopolysaccharide. After 18 hours incubation in the presence of LPS, the cell supernatant is removed and the concentration of TNFα in the supernatant determined by ELISA. Addition of the compounds of the invention reduces the amount of TNFα produced. An IC50 is determined which is equal to the concentration of compound that gives 50% inhibition of TNFα production as compared to the LPS stimulated control wells.

| SMILES | IC50 |
| --- | --- |
| CC(C)(C)c1cc(NC(=O)NCc2ccccc2Sc2ccc3nnc(-c4cccc(OCCN5CCOCC5)c4)n3c2)n(-c2ccc(Cl)c(O)c2)n1 [Example 10, 1-[5-tert-Butyl-2-(4-chloro-3-hydroxyphenyl)-2H-pyrazol-3-yl]-3-(2-{3-[3-(2-morpholin-4-yl-ethoxy)phenyl]-[1,2,4]triazolo[4,3-a]pyridin-6-ylsulfanyl}benzyl)urea] | 4.3 nM |
| CC(C)(C)c1cc(NC(=O)NCc2ccccc2Sc2ccc3nnc(-c4cc(O)ccc4Cl)n3c2)n(-c2cccc(CN3CCOCC3)c2)n1 [Example 6, 1-[5-tert-Butyl-2-(3-morpholin-4-ylmethylphenyl)-2H-pyrazol-3-yl]-3-{2-[3-(2-chloro-5-hydroxyphenyl)-[1,2,4]triazolo[4,3-a]pyridin-6-ylsulfanyl]benzyl}urea] | 1.8 nM |
| CC(C)(C)c1cc(NC(=O)NCc2ccccc2Sc2ccc3nnc(-c4cccc(OCCN5CCOCC5)c4)n3c2)n(-c2ccc(O)c(Cl)c2)n1 [Example 9, 1-[5-tert-Butyl-2-(3-chloro-4-hydroxyphenyl)-2H-pyrazol-3-yl]-3-(2-{3-[3-(2-morpholin-4-ylethoxy)phenyl]-[1,2,4]triazolo[4,3-a]pyridin-6-ylsulfanyl}benzyl)urea] | 5.6 nM |
| CN(C)CCOc1cccc(-n2nc(C(C)(C)C)cc2NC(=O)NCc2ccccc2Sc2ccc3nnc(-c4cc(Cl)ccc4O)n3c2)c1 [Example 1, 1-{5-tert-Butyl-2-[3-(2-dimethylaminoethoxy)phenyl]-2H-pyrazol-3-yl}-3-{2-[3-(5-chloro-2-hydroxyphenyl)-[1,2,4]triazolo[4,3-a]pyridin-6-ylsulfanyl]benzyl}urea] | 5.6 nM |
| CN(C)Cc1cccc(-n2nc(C(C)(C)C)cc2NC(=O)NCc2ccccc2Sc2ccc3nnc(-c4cc(O)ccc4Cl)n3c2)c1 [Example 4, 1-[5-tert-Butyl-2-(3-dimethylaminomethylphenyl)-2H-pyrazol-3-yl]-3-{2-[3-(2-chloro-5-hydroxy-phenyl)-[1,2,4]triazolo[4,3-a]pyridin-6-ylsulfanyl]benzyl}urea] | 8.2 nM |
| CC(C)(C)c1cc(NC(=O)NCc2ccccc2Sc2ccc3nnc(-c4cc(Cl)ccc4O)n3c2)n(-c2cccc(CN3CCOCC3)c2)n1 [Example 5, 1-[5-tert-Butyl-2-(3-morpholin-4-ylmethylphenyl)-2H-pyrazol-3-yl]-3-{2-[3-(5-chloro-2-hydroxyphenyl)-[1,2,4]triazolo[4,3-a]pyridin-6-ylsulfanyl]benzyl}urea] | 2.5 nM |
| CC(C)(C)c1cc(NC(=O)NCc2ccccc2Sc2ccc3nnc(-c4ccc(CN5CCOCC5)cc4)n3c2)n(-c2ccc(O)c(Cl)c2)n1 [Example 8, 1-[5-tert-Butyl-2-(3-chloro-4-hydroxyphenyl)-2H-pyrazol-3-yl]-3-{2-[3-(4-morpholin-4-ylmethylphenyl)-[1,2,4]triazolo[4,3-a]pyridin-6-ylsulfanyl]benzyl}urea] | 5.5 nM |
| CC(C)(C)c1cc(NC(=O)NCc2ccccc2Sc2ccc3nnc(-c4ccc(CN5CCOCC5)cc4)n3c2)n(-c2ccc(Cl)c(O)c2)n1 [Example 7, 1-[5-tert-Butyl-2-(4-chloro-3-hydroxyphenyl)-2H-pyrazol-3-yl]-3-{2-[3-(4-morpholin-4-ylmethylphenyl)-[1,2,4]triazolo[4,3-a]pyridin-6-ylsulfanyl]benzyl}urea] | 3 nM |

Second part, the compound after the results:

| IC50 | SMILES |
| --- | --- |
| 4 nM | CN(C)Cc1cccc(-n2nc(C(C)(C)C)cc2NC(=O)NCc2ccccc2Sc2ccc3nnc(-c4cc(Cl)ccc4O)n3c2)c1 [Example 3, 1-[5-tert-Butyl-2-(3-dimethylaminomethylphenyl)-2H-pyrazol-3-yl]-3-(2-[3-(5-chloro-2-hydroxyphenyl)-[1,2,4]triazolo[4,3-a]pyridin-6-ylsulfanyl]benzyl)urea] |
| 4.9 nM | CSCC(C)(C)c1cc(NC(=O)NCc2ccccc2Sc2ccc3nnc(-c4cc(Cl)ccc4O)n3c2)n(-c2cccc(CN(C)C)c2)n1 [Example 11, 1-{2-[3-(5-Chloro-2-hydroxy-phenyl)-[1,2,4]triazolo[4,3-a]pyridin-6-ylsulfanyl]benzyl}-3-[2-(3-dimethylaminomethyl-phenyl)-5-(1,1-dimethyl-2-methylsulfanylethyl)-2H-pyrazol-3-yl]urea] |
| 2.9 nM | CSCC(C)(C)c1cc(NC(=O)NCc2ccccc2Sc2ccc3nnc(-c4cc(O)ccc4Cl)n3c2)n(-c2cccc(CN(C)C)c2)n1 [Example 2, 1-{2-[3-(2-Chloro-5-hydroxy-phenyl)-[1,2,4]triazolo[4,3-a]pyridin-6-ylsulfanyl]benzyl}-3-[2-(3-dimethylaminomethyl-phenyl)-5-(1,1-dimethyl-2-methylsulfanylethyl)-2H-pyrazol-3-yl]urea] |
